Here are results for six molecules from patent publication US12485191B2, “Radiopharmaceuticals and methods of use thereof” (BOARD OF REGENTS OF THE UNIVERSITY OF NEBRASKA, priority 2017, dated 2025).

One data set deals with HT-29 xenograft tumors. Description: Biodistribution study in HT-29 xenograft mouse model. In kind it is in vivo, mice. Here is the method:
Female SCID mice (5 weeks of age) received subcutaneous injections of HT-29 cells (5×10^6) suspended in Matrigel® into the flanks. When the tumor size reached 80 mm^3 (two weeks after injection), the mice were randomized into three groups and intravenously injected with 10 μCi (0.37 MBq) of the purified ^177Lu labeled conjugates via tail vein. The mice were sacrificed and the tissues were excised at 4, 24, and 72 hours post-injection time points. The blood, tumor, and excised tissues were weighed. The radioactivity for each sample was measured using a gamma counter. The percentage injected dose per gram (% ID/g) and the radioactivity ratios between tumor and non-targeted tissues were calculated.

The nature of data set [1]: Distribution coefficient (Log D7.4) of the conjugates. The data set is classed as physicochemical. As for the experimental part: Distribution Coefficient (Log D7.4) of the Conjugates The distribution coefficient was determined for each ^177Lu-labeled conjugate. In a 1.5 mL centrifuge tube, 0.5 mL of 1-octanol was added to 0.5 mL of PBS (pH 7.4) containing the radiolabeled peptide (500,000 cpm). The solution was vigorously vortexed for 2 minutes at room temperature and subsequently centrifuged to yield two immiscible layers. The radioactivity of the aliquots (100 μL) taken from each layer were quantified by the gamma counter and the Log D7.4 for each conjugates was calculated.

The target in data set [2] is T1, cathepsin B (human Liver) (Homo sapiens, UniProt P07858).
T1 construct: from tissue; host or cells: human liver
Description: Inhibition constant (Ki) of the compounds to cathepsin B. In kind it is biochemical. To be noted: read-out: CatB K1. As for the experimental part:
Determination of the Km and Vmax of Cathepsin B for Z-Arg-Arg-AMC
The solution of cathepsin B (human Liver) (50 μL, 2 nM) in assay buffer used above was mixed with 50 μL of solution of substrate Z-Arg-Arg-AMC in the assay buffer at different concentrations ([S]) (25 μM, 50 μM, 100 μM, 500 μM and 1 mM). The mixture was incubated at 37° C. and the fluorescence of the liberated aminomethylcoumarin at 460 nM using 355 nm excitation was measured at predetermined time points (0, 2, 4, 6, 8, and 10 minutes). The fluorescence intensity was plotted versus time and the reaction rates (v0) were calculated as the slope of the trend lines obtained by liner regression. Km and maximum reaction rate (Vmax-obs) was determined from the equation v0=Vmax[S]/(Km+[S]) and solved by nonlinear regression using GraphPad Prism 5. All measurements were in biological triplicate.
Determination of the Inhibition Constant (Ki) of the Compounds to Cathepsin B
The cathepsin B (human Liver) in assay buffer (25 μL) was mixed with the conjugate (25 μL) in 96-well plate. After the solution was mixed, the Z-Arg-Arg-AMC in assay buffer (50 μL) was added to the well, yielding a final cathepsin B concentration of 1 nM, conjugate concentration ([C]) of 15 nM or 5 μM, and substrate concentration ([S]) of 25 μM, 50 μM, 100 μM, 500 μM and 1 mM. The mixture was incubated at 37° C. and the fluorescence of the liberated aminomethylcoumarin at 460 nM using 355 nm excitation was measured at predetermined time points (0, 2, 4, 6, 8, and 10 minutes). The fluorescence intensity was plotted versus time with observed reaction rates (v0-obs) calculated as the slope of the trend lines obtained by liner regression. The observed rate constant (Kobs) and observed maximum reaction rate (Vmax-obs) was determined from the equation v0-obs=Vmax-obs [S]/(Kobs+[S]) and solved by nonlinear regression using GraphPad Prism 5. The Ki was calculated from the equation Kobs=Km (1+[C]/Ki). All measurements were in biological triplicate.

Another data set deals with T2, NTSR1 (Homo sapiens, UniProt P30989).
T2 construct: endogenous in cells; host or cells: HT-29 human colon cancer cells (ATCC)
T2 sequence (P30989 whole entry): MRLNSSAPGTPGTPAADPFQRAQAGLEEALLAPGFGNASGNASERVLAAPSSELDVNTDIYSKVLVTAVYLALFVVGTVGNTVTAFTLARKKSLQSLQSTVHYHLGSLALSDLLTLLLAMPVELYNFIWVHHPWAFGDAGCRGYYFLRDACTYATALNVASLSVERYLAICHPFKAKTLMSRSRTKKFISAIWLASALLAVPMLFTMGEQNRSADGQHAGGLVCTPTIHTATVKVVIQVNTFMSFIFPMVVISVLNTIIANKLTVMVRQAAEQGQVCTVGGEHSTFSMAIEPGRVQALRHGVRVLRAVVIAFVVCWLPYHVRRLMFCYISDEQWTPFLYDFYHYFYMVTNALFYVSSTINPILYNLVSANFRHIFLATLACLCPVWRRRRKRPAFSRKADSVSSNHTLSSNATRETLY
Description: In vitro competitive neurotensin receptor binding in HT-29 cells vs 177Lu-N1. To be noted: unlabeled conjugates. Here is the method:
In Vitro Competitive Neurotensin Receptor Binding Studies
The IC50 for the unlabeled conjugates binding to the neurotensin receptors was determined using the HT-29 human colon cancer cell line. […]. Med. Biol., 42:816), served as the competitive radioligand for comparing the relative binding affinities of the conjugates. HT-29 cells (˜1×10^6) suspended in 100 μL of McCoy's 5A medium (pH 7.4, 4.8 mg/mL HEPES, and 2 mg/mL BSA) were incubated with 177Lu-N1 (100,000 cpm, 100 μL) at 37° C. for 45 minutes in the presence of the conjugates with predetermined concentrations (0.5 nM-1 μM) in 100 μL of medium. At the end of the incubation, the cells were centrifuged, aspirated, and washed with fresh medium (5×500 μL). The cell-associated radioactivity was measured using gamma counter and the IC50 values determined by nonlinear regression using GraphPad Prism 5. All measurements were in biological triplicate.

A further data set addresses CatB (Homo sapiens, UniProt P07858). Description: CatB inhibition of GRPR-targeted agents. The data set is classed as biochemical. As for the experimental part: The Inhibition of Cathepsin B Activity by the Conjugates The phosphate buffer (0.1 M, pH=5.8) containing EDTA (1 mM), DTT (2.7 mM), and Brij®35 (0.03%) was prepared before the assay. […] The solution of cathepsin B (human Liver) in assay buffer (50 μL, 0.544 nM) was added to the mixture which was further incubated at 37° C. for 20 minutes. The fluorescence of the liberated aminomethylcoumarin at 460 nM using 355 nm excitation was measured and the IC50 of the cathepsin B inhibition versus the samples without the inhibitor was determined by nonlinear regression using GraphPad Prism 5.

Another data set concerns PC-3 tumor. As to conditions: mouse, in vivo.
The mark [3] stands for this setting: determined by radiometric analysis, 177Lu-labeled conjugate.

Marks after values point to notes of the source that are not given here.

For the molecule `Cc1cc(C)c(C(=O)OCC(=O)[C@H](CCCCNC(=O)CNC(=O)[C@@H](CO)NC(=O)[C@@H](CO)NC(=O)[C@@H](CO)NC(=O)Cn2cc(C[C@H](NC(=O)CN3CCN(CC(=O)O)CCN(CC(=O)O)CCN(CC(=O)O)CC3)C(=O)N[C@H](CO)C(=O)N[C@H](CO)C(=O)N[C@H](CO)C(=O)N[C@@H](CCCCN)C(=O)N3CCC[C@H]3C(=O)N(C)[C@@H](CCCNC(=N)N)C(=O)N[C@@H](CCCNC(=N)N)C(=O)N3CCC[C@H]3C(=O)N[C@@H](Cc3c(C)cc(O)cc3C)C(=O)N[C@H](C(=O)N[C@@H](CC(C)C)C(=O)O)C(C)(C)C)nn2)NC(=O)[C@H](Cc2ccccc2)NC(=O)OCc2ccccc2)c(C)c1` (177Lu complex, metal not drawn) [Compound 2f], in the data set with HT-29 xenograft tumors (HT-29 xenograft mice), the “retention in liver and kidney compared to 3b (in words)” value is on record as “significantly increased retention”. Also, the “increase in retention in the tumors compared to control 3b” value in the data set with HT-29 xenograft tumors (HT-29 xenograft, after 24 hours) was “nearly two-fold increase”. In addition, the “increase in tumor uptake” value with HT-29 xenograft tumors (HT-29 xenograft, by 24 hours) is 25%.

As to `Cc1cc(C)c(C(=O)OCC(=O)[C@H](CCCCn2cc(C[C@H](NC(=O)CN3CCN(CC(=O)O)CCN(CC(=O)O)CCN(CC(=O)O)CC3)C(=O)NCCC(=O)N[C@@H](CCCCN)C(=O)N3CCC[C@H]3C(=O)N(C)[C@@H](CCCNC(=N)N)C(=O)N[C@@H](CCCNC(=N)N)C(=O)N3CCC[C@H]3C(=O)N[C@@H](Cc3c(C)cc(O)cc3C)C(=O)N[C@H](C(=O)N[C@@H](CC(C)C)C(=O)O)C(C)(C)C)nn2)NC(=O)[C@H](Cc2ccccc2)NC(=O)OCc2ccccc2)c(C)c1` [Compound 2a], in data set [1] (setting [3]), the logD7.4 is on record as −1.46 ± 0.02^b. In data set [2], the Ki was found to be 25 ± 4 nM. Also, the IC50 on NTSR1 worked out at 20 ± 2 nM.

Regarding `Cc1cc(C)c(C(=O)OCC(=O)[C@H](CCCCNC(=O)Cn2cc(C[C@H](NC(=O)CN3CCN(CC(=O)O)CCN(CC(=O)O)CCN(CC(=O)O)CC3)C(=O)NCCC(=O)N[C@@H](CCCCN)C(=O)N3CCC[C@H]3C(=O)N(C)[C@@H](CCCNC(=N)N)C(=O)N[C@@H](CCCNC(=N)N)C(=O)N3CCC[C@H]3C(=O)N[C@@H](Cc3c(C)cc(O)cc3C)C(=O)N[C@H](C(=O)N[C@@H](CC(C)C)C(=O)O)C(C)(C)C)nn2)NC(=O)[C@H](Cc2ccccc2)NC(=O)OCc2ccccc2)c(C)c1` [Compound 2b], the logD7.4 in data set [1] (setting [3]) was −1.49 ± 0.02^b. Besides, the Ki in data set [2] was 26 ± 5 nM. Also, the IC50 on NTSR1 amounted to 22 ± 2 nM.

Take `Cc1cc(C)c(C(=O)OCC(=O)[C@H](CCCCNC(=O)CNC(=O)[C@@H](CO)NC(=O)[C@@H](CO)NC(=O)[C@@H](CO)NC(=O)Cn2cc(C[C@H](NC(=O)CN3CCN(CC(=O)O)CCN(CC(=O)O)CCN(CC(=O)O)CC3)C(=O)NCCC(=O)N[C@@H](CCCCN)C(=O)N3CCC[C@H]3C(=O)N(C)[C@@H](CCCNC(=N)N)C(=O)N[C@@H](CCCNC(=N)N)C(=O)N3CCC[C@H]3C(=O)N[C@@H](Cc3c(C)cc(O)cc3C)C(=O)N[C@H](C(=O)N[C@@H](CC(C)C)C(=O)O)C(C)(C)C)nn2)NC(=O)[C@H](Cc2ccccc2)NC(=O)OCc2ccccc2)c(C)c1` [Compound 2d]: the logD7.4 in data set [1] (setting [3]) is on record as −1.79 ± 0.06^b. For the same molecule, the Ki in data set [2] came to 73 ± 8 nM. Moreover, the IC50 at NTSR1 came out at 20 ± 3 nM.

Turning to `Cc1cc(C)c(C(=O)OCC(=O)[C@H](CCCCNC(=O)CNC(=O)[C@@H](CO)NC(=O)[C@@H](CO)NC(=O)[C@@H](CO)NC(=O)Cn2cc(C[C@H](NC(=O)CN3CCN(CC(=O)O)CCN(CC(=O)O)CCN(CC(=O)O)CC3)C(=O)N[C@H](CO)C(=O)N[C@H](CO)C(=O)N[C@H](CO)C(=O)N[C@@H](CCCCN)C(=O)N3CCC[C@H]3C(=O)N(C)[C@@H](CCCNC(=N)N)C(=O)N[C@@H](CCCNC(=N)N)C(=O)N3CCC[C@H]3C(=O)N[C@@H](Cc3c(C)cc(O)cc3C)C(=O)N[C@H](C(=O)N[C@@H](CC(C)C)C(=O)O)C(C)(C)C)nn2)NC(=O)[C@H](Cc2ccccc2)NC(=O)OCc2ccccc2)c(C)c1` [Compound 2f], the Ki in data set [2] was determined as 50 ± 13 nM. Moreover, the 50% inhibitory concentration (IC50) at NTSR1 is 18 ± 2 nM.

In data set [1] (GRPR-targeted agents), `CC(C)C[C@H](NC(=O)CCC(=O)O)C(=O)N[C@@H](CCCNC(=N)N)C(=O)NCCn1cc(C[C@H](NC(=O)CN2CCN(CC(=O)O)CCN(CC(=O)O)CCN(CC(=O)O)CC2)C(=O)NCCOCCOCCOCCOCCC(=O)N[C@H](Cc2ccccc2)C(=O)N[C@@H](CCC(N)=O)C(=O)N[C@@H](Cc2c[nH]c3ccccc23)C(=O)N[C@@H](C)C(=O)N[C@H](C(=O)NCC(=O)N[C@@H](Cc2c[nH]cn2)C(=O)N[C@@H](CC(C)C)[C@@H](O)CC(=O)N[C@H](CC(C)C)C(N)=O)C(C)C)nn1` [^177Lu-C-ANT, metal not drawn] yielded a logD7.4 of −1.9 ± 0.1. Moreover, the “inhibition of catB (in words)” value against CatB was “no inhibition”. For the same molecule, in the data set on PC-3 tumor, the tumor retention was 15%.

Usually IC50 stands for the concentration that gives 50% inhibition. Low values mean greater potency in that assay, high ones weaker potency in that assay.
